US11261201B2 (priority 2018, dated 2022)
≈ marks a conversion by molar mass, not a printed value. Read-outs that look alike come from different tables or passages of the source.

Columns and labels:
[1] = test system: H37RvMA; assay: Tuberculosis Alamar Blue/Resazurin assay (MIC); assay type: cell-based; conditions: Mycobacterium tuberculosis, H37RV, read-out: WT H37Rv MTB Activity
[2] = test system: E. coli; assay: Gram negative MIC protocol (OD600, LB, 24 h); conditions: Escherichia coli
Method: (§1) Overnight bacterial cultures were grown in LB with no added antibiotics at 37° C. with shaking. A 1:1000 dilution of these cultures into LB was exposed to concentration gradients of compounds in 96-well plates (100 μL per well assay volume). Resulting plates were incubated at 37° C. for 24 h without shaking, and OD600 was measured at the end of the incubation. MICs were determined as the lowest concentrations at which OD600 remained at baseline.

[3] = test system: A. baumannii; assay: Gram negative MIC protocol (OD600, LB, 24 h); conditions: Acinetobacter baumannii
Method: as §1

[4] = read-out: MIC E. coli delta-TolC LB Media, E. coli delta-TolC, LB media, OD600
[5] = read-out: MIC WT E. coli LB Media, WT E. coli, LB media, OD600
[6] = read-out: MIC A. baumannii LB Media, A. baumannii, LB media, 24 h, OD600
[7] = read-out: MIC A. baumannii LB Media

CC(Cc1ccn(C(C)C)n1)NCc1ccccc1 (centres unmarked) [B47]
MIC [1]: > 150 µM | MIC [2, 4]: > 150 µM | MIC [2, 5]: > 150 µM | MIC [3, 6]: > 150 µM

C1=Nc2c(cccc2CCNCc2ccccc2)C1 [B48]
MIC [1]: 150 µM (≈ 37.6 µg/mL) | MIC [2, 4]: > 150 µM | MIC [2, 5]: > 150 µM | MIC [3, 7]: 150 µM (≈ 37.6 µg/mL)

c1ccc(CNC2(Cc3ccccc3)CC2)cc1 [B49]
MIC ([1]; WT H37Rv MTB): > 150 µM | MIC [2, 4]: > 150 µM | MIC [2, 5]: > 150 µM | MIC [3, 6]: > 150 µM

COc1ccc(CC(C)(C)NCc2ccccc2)cc1 [B50]
MIC [1]: > 150 µM | MIC [2, 4]: > 150 µM | MIC [2, 5]: > 150 µM | MIC [3, 7]: > 150 µM

CC(C)=CCCNCc1ccccc1 [B51]
MIC ([1]; WT H37Rv MTB): > 150 µM | MIC [2, 4]: > 150 µM | MIC [2, 5]: > 150 µM | MIC [3, 6]: > 150 µM

COC1(CC(C)NCc2ccccc2)CCC1 (centres unmarked) [B52]
MIC ([1]; WT H37Rv MTB): > 150 µM | MIC [2, 4]: > 150 µM | MIC [2, 5]: > 150 µM | MIC [3, 6]: > 150 µM

C[C@H](NCc1ccccc1)[C@H](O)c1ccc2c(c1)OCO2 [B53]
MIC [1]: > 150 µM | MIC [2, 4]: > 150 µM | MIC [2, 5]: > 150 µM | MIC [3, 6]: > 150 µM

COc1ccc(C(C)C(C)NCc2ccccc2)cc1OC (centres unmarked) [B54]
MIC [1]: > 150 µM | MIC [2, 4]: > 150 µM | MIC [2, 5]: > 150 µM | MIC [3, 6]: > 150 µM

Clc1cc(CCNCc2ccccc2)cc2c1OCCO2 [B55]
MIC [1]: 150 µM (≈ 45.6 µg/mL) | MIC [2, 4]: > 150 µM | MIC [2, 5]: > 150 µM | MIC [3, 7]: > 150 µM

c1ccc(CNCCc2ccc3[nH]ccc3c2)cc1 [B56]
MIC [1]: > 150 µM | MIC [2, 4]: > 150 µM | MIC [2, 5]: > 150 µM | MIC [3, 7]: > 150 µM

C1=Nc2cccc(CCNCc3ccccc3)c2C1 [B57]
MIC [1]: > 150 µM | MIC [2, 4]: > 150 µM | MIC [2, 5]: > 150 µM | MIC [3, 7]: > 150 µM

c1ccc(CNCCc2ccc3cn[nH]c3c2)cc1 [B58]
MIC ([1]; WT H37Rv MTB): > 150 µM | MIC [2, 4]: > 150 µM | MIC [2, 5]: > 150 µM | MIC [3, 6]: > 150 µM

c1ccc(CNCC2C3CC4CC(C3)CC2C4)cc1 (centres unmarked) [B59]
MIC ([1]; WT H37Rv MTB): 33 µM (≈ 8.43 µg/mL) | MIC [2, 4]: > 150 µM | MIC [2, 5]: > 150 µM | MIC [3, 6]: > 150 µM

OC1(CCNCc2ccccc2)CC2CCC1C2 (centres unmarked) [B60]
MIC ([1]; WT H37Rv MTB): > 150 µM | MIC [2, 4]: > 150 µM | MIC [2, 5]: > 150 µM | MIC [3, 6]: > 150 µM

c1ccc(CNC[C@@H]2C[C@H]2c2ccccc2)cc1 [B61]
MIC ([1]; WT H37Rv MTB): > 150 µM | MIC [2, 4]: > 150 µM | MIC [2, 5]: > 150 µM | MIC [3, 6]: > 150 µM

CC(NCc1ccccc1)C1CC2CCC1CC2 (centres unmarked) [B62]
MIC ([1]; WT H37Rv MTB): > 150 µM | MIC [2, 4]: > 150 µM | MIC [2, 5]: > 150 µM | MIC [3, 6]: > 150 µM

C1=C(CNCc2ccccc2)CCCC1 [B63]
MIC ([1]; WT H37Rv MTB): > 150 µM | MIC [2, 4]: > 150 µM | MIC [2, 5]: > 150 µM | MIC [3, 6]: > 150 µM

c1ccc(CNCCN2CC3CCC(C2)O3)cc1 [B64]
MIC [1]: > 150 µM | MIC [2, 4]: > 150 µM | MIC [2, 5]: > 150 µM | MIC [3, 6]: > 150 µM

c1ccc(CNCCc2ccc3c(c2)COC3)cc1 [B65]
MIC [1]: > 150 µM | MIC [2, 4]: > 150 µM | MIC [2, 5]: > 150 µM | MIC [3, 7]: > 150 µM

c1ccc(CNCCC2CC3CCC2O3)cc1 (centres unmarked) [B66]
MIC ([1]; WT H37Rv MTB): > 150 µM | MIC [2, 4]: > 150 µM | MIC [2, 5]: > 150 µM | MIC [3, 6]: > 150 µM

CC(C)(CN1CCOCC1)NCc1ccccc1 [B67]
MIC ([1]; WT H37Rv MTB): > 150 µM | MIC [2, 4]: > 150 µM | MIC [2, 5]: > 150 µM | MIC [3, 6]: > 150 µM

COc1ccc(CC(C)NCc2ccccc2)cn1 (centres unmarked) [B68]
MIC [1]: > 150 µM | MIC [2, 4]: > 150 µM | MIC [2, 5]: > 150 µM | MIC [3, 6]: > 150 µM

CC1CC1C(C)NCc1ccccc1 (centres unmarked) [B69]
MIC ([1]; WT H37Rv MTB): > 150 µM | MIC [2, 4]: > 150 µM | MIC [2, 5]: > 150 µM | MIC [3, 6]: > 150 µM

C1=CC2CC1CC2CCNCc1ccccc1 (centres unmarked) [B70]
MIC ([1]; WT H37Rv MTB): > 150 µM | MIC [2, 4]: > 150 µM | MIC [2, 5]: > 150 µM | MIC [3, 6]: > 150 µM

C1=C(CCNCc2ccccc2)CCCCC1 [B71]
MIC ([1]; WT H37Rv MTB): 91 µM (≈ 20.9 µg/mL) | MIC [2, 4]: 90 µM (≈ 20.6 µg/mL) | MIC [2, 5]: 150 µM (≈ 34.4 µg/mL) | MIC [3, 6]: > 150 µM

CC(C)(CNCc1ccccc1)C1=CCCCC1 [B72]
MIC ([1]; WT H37Rv MTB): > 150 µM | MIC [2, 4]: > 150 µM | MIC [2, 5]: > 150 µM | MIC [3, 6]: > 150 µM

Cc1cccc(C)c1CNCCC1=CCCCC1 [B73]
MIC ([1]; WT H37Rv MTB): > 150 µM | MIC [2, 4]: > 150 µM | MIC [2, 5]: > 150 µM | MIC [3, 6]: > 150 µM

CC(C)(CNCc1ccccc1)C1=CCCC1 [B74]
MIC ([1]; WT H37Rv MTB): > 150 µM | MIC [2, 4]: > 150 µM | MIC [2, 5]: > 150 µM | MIC [3, 6]: > 150 µM

CC(Cc1ccccn1)NCc1ccccc1 (centres unmarked) [B75]
MIC [1]: > 150 µM | MIC [2, 4]: > 150 µM | MIC [2, 5]: > 150 µM | MIC [3, 6]: > 150 µM

CC(NCc1ccccc1)C1CC1c1ccc(F)cc1 (centres unmarked) [B76]
MIC ([1]; WT H37Rv MTB): > 150 µM | MIC [2, 4]: > 150 µM | MIC [2, 5]: > 150 µM | MIC [3, 6]: > 150 µM

CC(NCc1ccccc1)C1C(C)(C)C1(C)C (centres unmarked) [B77]
MIC ([1]; WT H37Rv MTB): > 150 µM | MIC [2, 4]: > 150 µM | MIC [2, 5]: > 150 µM | MIC [3, 6]: > 150 µM

CC1CC(C)CC(C(C)NCc2ccccc2)C1 (centres unmarked) [B79]
MIC ([1]; WT H37Rv MTB): 91 µM (≈ 22.3 µg/mL) | MIC [2, 4]: > 150 µM | MIC [2, 5]: > 150 µM | MIC [3, 6]: > 150 µM
